Test results taken from PubChem BioAssay AID248 (DTP/NCI, 2004).
Where “and” joins values, the source holds several entries; their conditions need not be identical. Equal values may be shown once. Toxic doses and inconclusive results are not listed. Cut-off read from the data, not from the text of the source: active = T/C of 150% or more; inactive = T/C below 125%.

Tested on: L1210 leukemia ip in BDF1 mice, survival T/C
Assay: NCI In Vivo Anticancer Drug Screen. Data for tumor model L1210 Leukemia (intraperitoneal) in B6D2F1 (BDF1) mice
Details: endpoint: mean survival time, higher = longer survival
Procedure, shortened: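 Each compound was tested against a transplantable tumor grown in mice. The endpoint was survival, with treated animals benchmarked against vehicle controls as a simple ratio.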

[1] = dose: 100.0 mg/kg/injection, schedule: Q01DX009 (ip), vehicle: saline
[2] = dose: 100.0 mg/kg/injection, schedule: Q04DX003 (ip), vehicle: saline
[3] = dose: 200.0 mg/kg/injection, schedule: Q01DX009 (ip), vehicle: saline
[4] = dose: 200.0 mg/kg/injection, schedule: Q04DX003 (ip), vehicle: saline
[5] = dose: 400.0 mg/kg/injection, schedule: Q01DX009 (ip), vehicle: saline
[6] = dose: 100.0 mg/kg/injection, schedule: Q01DX009 (ip), vehicle: saline with Tween-80
[7] = dose: 200.0 mg/kg/injection, schedule: Q01DX009 (ip), vehicle: saline with Tween-80
[8] = dose: 100.0 mg/kg/injection, schedule: Q01DX001 (ip), vehicle: saline
[9] = dose: 200.0 mg/kg/injection, schedule: Q01DX001 (ip), vehicle: saline
[10] = dose: 400.0 mg/kg/injection, schedule: Q01DX001 (ip), vehicle: saline
[11] = dose: 100.0 mg/kg/injection, schedule: Q01DX009 (ip), vehicle: Klucel (hydroxypropylcellulose) (HPC)
[12] = dose: 200.0 mg/kg/injection, schedule: Q01DX009 (ip), vehicle: Klucel (hydroxypropylcellulose) (HPC)
[13] = dose: 400.0 mg/kg/injection, schedule: Q01DX009 (ip), vehicle: Klucel (hydroxypropylcellulose) (HPC)
[14] = dose: 12.5 mg/kg/injection, schedule: Q01DX009 (ip), vehicle: saline
[15] = dose: 25.0 mg/kg/injection, schedule: Q01DX009 (ip), vehicle: saline
[16] = dose: 25.0 mg/kg/injection, schedule: Q04DX003 (ip), vehicle: saline
[17] = dose: 50.0 mg/kg/injection, schedule: Q01DX001 (ip), vehicle: saline
[18] = dose: 100.0 mg/kg/injection, schedule: Q04DX003 (ip), vehicle: saline with Tween-80
[19] = dose: 200.0 mg/kg/injection, schedule: Q04DX003 (ip), vehicle: saline with Tween-80
[20] = dose: 400.0 mg/kg/injection, schedule: Q04DX003 (ip), vehicle: saline with Tween-80
[21] = dose: 100.0 mg/kg/injection, schedule: Q04DX003 (ip), vehicle: Klucel (hydroxypropylcellulose) (HPC)
[22] = dose: 200.0 mg/kg/injection, schedule: Q04DX003 (ip), vehicle: Klucel (hydroxypropylcellulose) (HPC)
[23] = dose: 400.0 mg/kg/injection, schedule: Q04DX003 (ip), vehicle: Klucel (hydroxypropylcellulose) (HPC)

Measured: T/C

O=C1C2C3CC4C2C(=O)C2C1C3C42 (stereo not drawn)
inactive: dose: 75.0 mg/kg/injection, schedule: Q01DX001 (ip), vehicle: other 101 % of control | [1] 97 % of control | [2] 94 % of control | dose: 150.0 mg/kg/injection, schedule: Q01DX001 (ip), vehicle: other 101 % of control | [3] 94 % of control | [4] 104 % of control | dose: 300.0 mg/kg/injection, schedule: Q01DX001 (ip), vehicle: other 93 % of control | [5] 104 % of control | dose: 400.0 mg/kg/injection, schedule: Q04DX003 (ip), vehicle: saline 91 % of control

Cc1cc(P(=O)(O)O)ccc1Cl
inactive: dose: 100.0 mg/kg/injection, schedule: Q01DX009 (ip), vehicle: acetone 87 % of control | dose: 200.0 mg/kg/injection, schedule: Q01DX009 (ip), vehicle: acetone 90 % of control

C=C=CC(C=O)(CC)CCCC (stereo not drawn)
inactive: dose: 50.0 mg/kg/injection, schedule: Q01DX009 (ip), vehicle: saline with Tween-80 91 % of control | [6] 94 % of control | [7] 98 % of control

CC(=O)Nc1ccc(OC(C)=O)cc1[N+](=O)[O-]
inactive: [8] 105 % of control | [9] 102 % of control | [10] 102 % of control

COc1ccc(CN(CCN(C)C)c2ccccn2)cc1
inactive: dose: 12.5 mg/kg/injection, schedule: Q01DX009 (ip), vehicle: Klucel (hydroxypropylcellulose) (HPC) 97 % of control | dose: 12.5 mg/kg/injection, schedule: Q04DX003 (ip), vehicle: Klucel (hydroxypropylcellulose) (HPC) 94 % of control | dose: 25.0 mg/kg/injection, schedule: Q01DX009 (ip), vehicle: Klucel (hydroxypropylcellulose) (HPC) 94 % of control | dose: 25.0 mg/kg/injection, schedule: Q04DX003 (ip), vehicle: Klucel (hydroxypropylcellulose) (HPC) 93 % of control | dose: 50.0 mg/kg/injection, schedule: Q01DX009 (ip), vehicle: Klucel (hydroxypropylcellulose) (HPC) 93 % of control | dose: 50.0 mg/kg/injection, schedule: Q04DX003 (ip), vehicle: Klucel (hydroxypropylcellulose) (HPC) 93 % of control and 94 % of control

O=C(O)COc1ccccc1C(=O)O
inactive: dose: 5.0 mg/kg/injection, schedule: Q01DX001 (ip), vehicle: saline 100 % of control | dose: 10.0 mg/kg/injection, schedule: Q01DX001 (ip), vehicle: saline 100 % of control | dose: 20.0 mg/kg/injection, schedule: Q01DX001 (ip), vehicle: saline 96 % of control | dose: 20.0 mg/kg/injection, schedule: Q04DX002 (ip), vehicle: Klucel (hydroxypropylcellulose) (HPC) 88 % of control | dose: 40.0 mg/kg/injection, schedule: Q01DX001 (ip), vehicle: saline 96 % of control | dose: 40.0 mg/kg/injection, schedule: Q04DX002 (ip), vehicle: Klucel (hydroxypropylcellulose) (HPC) 98 % of control | dose: 80.0 mg/kg/injection, schedule: Q04DX002 (ip), vehicle: Klucel (hydroxypropylcellulose) (HPC) 100 % of control | [11] 89 % of control | dose: 100.0 mg/kg/injection, schedule: Q04DX002 (ip), vehicle: Klucel (hydroxypropylcellulose) (HPC) 95 % of control | [12] 86 % of control | dose: 200.0 mg/kg/injection, schedule: Q04DX002 (ip), vehicle: Klucel (hydroxypropylcellulose) (HPC) 98 % of control | [13] 89 % of control | dose: 400.0 mg/kg/injection, schedule: Q04DX002 (ip), vehicle: Klucel (hydroxypropylcellulose) (HPC) 103 % of control

Nc1nc(SCc2ccccc2)c(N)c(=S)[nH]1
inactive: dose: 100.0 mg/kg/injection, schedule: Q01DX001 (ip), vehicle: Klucel (hydroxypropylcellulose) (HPC) 95 % of control | dose: 200.0 mg/kg/injection, schedule: Q01DX001 (ip), vehicle: Klucel (hydroxypropylcellulose) (HPC) 90 % of control | dose: 400.0 mg/kg/injection, schedule: Q01DX001 (ip), vehicle: Klucel (hydroxypropylcellulose) (HPC) 93 % of control

O=S(=O)(C=C(N1CCCCC1)N1CCCCC1)Cc1ccccc1
inactive: dose: 6.25 mg/kg/injection, schedule: Q01DX009 (ip), vehicle: saline 113 % of control | dose: 12.5 mg/kg/injection, schedule: Q01DX001 (ip), vehicle: saline 100 % of control | [14] 106 % of control | dose: 12.5 mg/kg/injection, schedule: Q04DX003 (ip), vehicle: saline 94 % of control | dose: 25.0 mg/kg/injection, schedule: Q01DX001 (ip), vehicle: saline 100 % of control | [15] 103 % of control | [16] 98 % of control | dose: 35.0 mg/kg/injection, schedule: Q01DX009 (ip), vehicle: acetone 101 % of control | [17] 106 % of control

CC(C)(C#CC(C)(C)OC(=O)Nc1ccccc1)OC(=O)Nc1ccccc1
inactive: [8] 98 % of control | [9] 95 % of control | [10] 101 % of control

Cc1ccccc1C1c2ccccc2C(=O)c2cccc(C)c21 (stereo not drawn)
inactive: [6] 101 % of control | [18] 89 % of control | [7] 101 % of control | [19] 102 % of control | dose: 400.0 mg/kg/injection, schedule: Q01DX009 (ip), vehicle: saline with Tween-80 97 % of control | [20] 94 % of control

CC1(C)N=C(c2ccccc2)C(c2ccccc2)=N1
inactive: [11] 105 % of control | [21] 108 % of control | [12] 98 % of control | [22] 97 % of control | [23] 115 % of control

Cc1ccc(N=Cc2cc(Cl)ccc2O)cc1.Cc1ccc(N=Cc2cc(Cl)ccc2O)cc1.[Co]
inactive: dose: 25.0 mg/kg/injection, schedule: Q04DX003 (ip), vehicle: saline with Tween-80 94 % of control | [18] 116 % of control and 91 % of control

OCC(O)C(O)C(O)C(c1ccc(F)cc1)c1ccc(F)cc1 (stereo not drawn)
inactive: [17] 97 % of control | [8] 100 % of control | [9] 100 % of control | [10] 103 % of control

ClC(Cl)(Cl)C1OCCCO1
inactive: [8] 97 % of control | [9] 107 % of control | [10] 103 % of control

CN(C)CCOc1ccccc1Cc1ccccc1
inactive: [14] 96 % of control | [15] 97 % of control | [16] 107 % of control | dose: 50.0 mg/kg/injection, schedule: Q01DX009 (ip), vehicle: saline 90 % of control | dose: 50.0 mg/kg/injection, schedule: Q04DX003 (ip), vehicle: saline 98 % of control | [1] 103 % of control | [2] 107 % of control | [3] 110 % of control | [4] 107 % of control

COc1ccc(Cl)cc1NC(=O)OCCCc1ccccc1
inactive: dose: 100.0 mg/kg/injection, schedule: Q01DX009 (ip), vehicle: gum acacia 108 % of control | dose: 200.0 mg/kg/injection, schedule: Q01DX009 (ip), vehicle: gum acacia 98 % of control | dose: 400.0 mg/kg/injection, schedule: Q01DX009 (ip), vehicle: gum acacia 109 % of control

OC(c1ccccc1)(c1ccccc1)C1c2ccccc2-c2[nH]c3ccccc3c21 (stereo not drawn)
inactive: dose: 200.0 mg/kg/injection, schedule: Q01DX001 (ip), vehicle: saline with Tween-80 91 % of control

O=C(Nc1ccc([N+](=O)[O-])cc1Cl)SCCSC(=O)Nc1ccc([N+](=O)[O-])cc1Cl
inactive: [11] 114 % of control | [12] 94 % of control | [13] 105 % of control

COc1ccc(COC(=O)Nc2ccccc2)cc1
inactive: dose: 75.0 mg/kg/injection, schedule: Q01DX001 (ip), vehicle: carboxymethylcellulose (CMC) 101 % of control | dose: 150.0 mg/kg/injection, schedule: Q01DX001 (ip), vehicle: carboxymethylcellulose (CMC) 98 % of control

O=C(O)CCOc1ccc(Cl)cc1
inactive: [18] 106 % of control | [19] 103 % of control | [20] 95 % of control

Cc1ccc(C(C)C)c2sc(=N)oc12
inactive: [21] 104 % of control | [22] 103 % of control | [23] 98 % of control

CC(C)C1CCC(C)C(C(O)(C(F)(F)F)C(F)(F)F)C1=O (stereo not drawn)
inactive: [1] 114 % of control | [3] 97 % of control | [5] 97 % of control
